Laboratory results published in ChEMBL document CHEMBL1131477, “Synthesis and biological activity of a novel series of nonsteroidal, peripherally selective androgen receptor antagonists derived from 1,2-dihydropyridono[5,6-g]quinolines” (J Med Chem, 1998).

Columns and labels:
[1] = target: T1, Progesterone receptor (Homo sapiens) (UniProt P06401); assay: Efficacy as a function of maximal inhibition against human progesterone receptor B (hPR-B).
T1 sequence (whole entry): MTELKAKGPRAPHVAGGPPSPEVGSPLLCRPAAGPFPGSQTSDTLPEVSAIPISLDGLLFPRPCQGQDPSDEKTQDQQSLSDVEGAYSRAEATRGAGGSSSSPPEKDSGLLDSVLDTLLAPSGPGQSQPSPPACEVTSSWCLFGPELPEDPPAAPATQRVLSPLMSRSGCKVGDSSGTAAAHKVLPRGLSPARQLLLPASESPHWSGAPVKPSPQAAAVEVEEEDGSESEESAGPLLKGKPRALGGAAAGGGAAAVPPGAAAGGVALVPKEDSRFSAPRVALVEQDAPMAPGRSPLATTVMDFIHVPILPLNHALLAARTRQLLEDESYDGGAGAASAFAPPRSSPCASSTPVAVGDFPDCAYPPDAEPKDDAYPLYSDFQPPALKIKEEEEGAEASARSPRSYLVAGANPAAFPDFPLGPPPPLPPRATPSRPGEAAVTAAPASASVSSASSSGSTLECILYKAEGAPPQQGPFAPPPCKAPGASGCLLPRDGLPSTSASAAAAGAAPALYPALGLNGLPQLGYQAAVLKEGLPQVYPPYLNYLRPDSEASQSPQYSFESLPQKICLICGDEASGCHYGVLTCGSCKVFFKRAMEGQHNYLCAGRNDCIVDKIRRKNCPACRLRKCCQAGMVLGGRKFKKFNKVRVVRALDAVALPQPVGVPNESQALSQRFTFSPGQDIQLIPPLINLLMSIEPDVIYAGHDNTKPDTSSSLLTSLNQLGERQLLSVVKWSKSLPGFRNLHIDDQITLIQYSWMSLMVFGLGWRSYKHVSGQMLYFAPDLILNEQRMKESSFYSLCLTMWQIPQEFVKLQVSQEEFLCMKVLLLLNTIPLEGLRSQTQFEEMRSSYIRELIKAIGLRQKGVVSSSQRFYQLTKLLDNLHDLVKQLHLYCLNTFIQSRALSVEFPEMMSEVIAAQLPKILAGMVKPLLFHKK

Androgen receptor [2] = target: T2, Androgen receptor (Homo sapiens, UniProt P10275)
T2 sequence (P10275 whole entry): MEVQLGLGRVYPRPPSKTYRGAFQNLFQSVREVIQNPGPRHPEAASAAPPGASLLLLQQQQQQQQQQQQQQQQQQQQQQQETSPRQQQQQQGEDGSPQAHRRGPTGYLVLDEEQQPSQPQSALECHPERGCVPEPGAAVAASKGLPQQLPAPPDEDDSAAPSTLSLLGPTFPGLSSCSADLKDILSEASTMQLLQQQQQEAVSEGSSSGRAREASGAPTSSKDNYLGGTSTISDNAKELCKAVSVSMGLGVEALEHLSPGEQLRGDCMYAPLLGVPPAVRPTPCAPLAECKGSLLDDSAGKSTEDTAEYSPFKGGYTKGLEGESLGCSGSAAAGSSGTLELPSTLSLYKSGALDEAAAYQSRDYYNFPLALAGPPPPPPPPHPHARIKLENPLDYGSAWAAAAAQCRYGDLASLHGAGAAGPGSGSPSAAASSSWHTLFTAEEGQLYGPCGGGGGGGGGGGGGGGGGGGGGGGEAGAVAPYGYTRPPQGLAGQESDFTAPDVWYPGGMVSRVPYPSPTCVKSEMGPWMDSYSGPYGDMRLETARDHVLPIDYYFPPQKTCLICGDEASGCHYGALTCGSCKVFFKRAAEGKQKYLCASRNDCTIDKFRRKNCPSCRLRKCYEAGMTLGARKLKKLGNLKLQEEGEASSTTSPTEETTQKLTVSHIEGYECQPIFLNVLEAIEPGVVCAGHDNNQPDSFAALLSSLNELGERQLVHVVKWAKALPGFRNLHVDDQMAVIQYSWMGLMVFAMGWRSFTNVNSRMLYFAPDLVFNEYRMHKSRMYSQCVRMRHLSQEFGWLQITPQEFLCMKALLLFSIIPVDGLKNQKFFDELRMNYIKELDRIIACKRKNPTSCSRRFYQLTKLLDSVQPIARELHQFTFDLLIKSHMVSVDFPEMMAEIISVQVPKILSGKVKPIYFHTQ
Description: Antagonistic activity against human androgen receptor (hAR) in co-transfected CV-1 cells.

Androgen receptor [3] = target: T2, Androgen receptor; assay: biochemical
Description: Binding affinity for human androgen receptor in transiently-transfected COS-1 cells.

Progesterone receptor = target: T3, Progesterone receptor (Homo sapiens, UniProt P06401); assay: Antagonistic activity against human progesterone receptor B (hPR-B) in co-transfected CV-1 cells.; type: functional, cell-based
T3 sequence (P06401 whole entry): T1 sequence (whole entry)

Row | SMILES | Efficacy [1] [%] | IC50 (Androgen receptor [2]) [nM] | Ki (Androgen receptor [3]) [nM] | IC50 (Progesterone receptor) [nM]
1 | CC(=O)O[C@]1(C(C)=O)CC[C@H]2[C@@H]3C=C(Cl)C4=CC(=O)[C@@H]5C[C@@H]5[C@]4(C)[C@H]3CC[C@@]21C | 12 | – | – | –
2 | CCC1(C)CCc2cc3c(C(F)(F)F)cc(=O)n(C)c3cc2N1 (stereo unspecified) | 73 | 48 | 69 | 3280
3 | CC1=C(C)C(C)(C)Nc2cc3nc(O)cc(C(F)(F)F)c3cc21 | 65 | – | – | –
4 | Oc1cc(C(F)(F)F)c2cc3c(cc2n1)NC1(CCCCC1)CC3 | 94 | 35 | 9 | 1830
5 | CCC1(C)CCc2cc3c(C(F)(F)F)cc(O)nc3cc2N1 (stereo unspecified) | 91 | – | – | –
6 | CC1=CC(C)(C)N(C)c2cc3nc(O)cc(C(F)(F)F)c3cc21 | 55 | 156 | 695 | 1680
7 | CC1c2cc3c(C(F)(F)F)cc(O)nc3cc2NC(C)(C)C1(C)C (stereo unspecified) | 93 | 57 | 358 | 362
8 | CC(C)(O)C(=O)Nc1ccc([N+](=O)[O-])c(C(F)(F)F)c1 | 90 | – | – | –
9 | CC1Cc2cc3c(C(F)(F)F)cc(=O)[nH]c3cc2NC1(C)C (stereo unspecified) | – | 30 | 73 | 348
10 | CCC1(CC)CCc2cc3c(C(F)(F)F)cc(O)nc3cc2N1 | 81 | 27 | 102 | 2710
11 | CC1=CC(C)(C)Nc2cc3nc(O)cc(C(F)(F)F)c3cc21 | 62 | – | – | –
12 | CC(C)C1CC(C)(C)Nc2cc3nc(O)cc(C(F)(F)F)c3cc21 (stereo unspecified) | 59 | 159 | 650 | 3160
13 | CCn1c(=O)cc(C(F)(F)F)c2cc3c(cc21)NC(C)(C)C=C3C | 55 | 692 | 670 | 1760
14 | CC1=CC(C)(C)Nc2c1cc1c(C(F)(F)F)cc(=O)n(C)c1c2C | 68 | – | 874 | 4400
15 | CC1=CC(C)(C)N(C)c2cc3c(cc21)c(C(F)(F)F)cc(=O)n3C | 91 | 46 | 39 | 136
16 | CC12CCCN1c1cc3nc(O)cc(C(F)(F)F)c3cc1CC2 (stereo unspecified) | 11 | – | – | > 10000
17 | CC1=C(C)C(C)(C)Nc2cc3[nH]c(=O)cc(C(F)(F)F)c3cc21 | – | 68 | 268 | 393
18 | CC1=CC(C)(C)Nc2c1cc1c(C(F)(F)F)cc(O)nc1c2C | 88 | – | – | –
19 | CC(O)(CS(=O)(=O)c1ccc(F)cc1)C(=O)Nc1ccc(C#N)c(C(F)(F)F)c1 (stereo unspecified) [BICALUTAMIDE] | 88 | – | – | 1820
20 | CC1=CC(C)(C)Nc2cc3c(cc21)c(C(F)(F)F)cc(=O)n3C | 88 | 34 | 81 | 233
21 | Cn1c(=O)cc(C(F)(F)F)c2cc3c(cc21)N1CCCC1(C)CC3 (stereo unspecified) | 84 | – | – | 398
22 | CC1(C)CCc2cc3c(C(F)(F)F)cc(=O)[nH]c3cc2N1 | – | – | – | 330
23 | CC1(C)C=Cc2cc3c(C(F)(F)F)cc(O)nc3cc2N1 | 81 | 58 | 86 | 390

Row | SMILES | Efficacy [1] [%] | IC50 (Androgen receptor [2]) [nM] | Ki (Androgen receptor [3]) [nM] | IC50 (Progesterone receptor) [nM]
24 | Cc1c2c(cc3c(C(F)(F)F)cc(O)nc13)C(C)CC(C)(C)N2 (stereo unspecified) | 74 | – | – | –
25 | CC1=CC(C)(C)Nc2cc3[nH]c(=O)cc(C)c3cc21 | – | 36 | 62 | 109
26 | CC1(C)Cc2cc3c(C(F)(F)F)cc(=O)[nH]c3cc2NC1(C)C | – | 83 | 189 | 876
27 | CCCC1(C)CCc2cc3c(C(F)(F)F)cc(O)nc3cc2N1 (stereo unspecified) | 86 | – | – | –
28 | C[C@H]1c2cc3c(C(F)(F)F)cc(O)nc3cc2NC(C)(C)[C@H]1C | 95 | – | – | 310
29 | CCC1Cc2cc3c(C(F)(F)F)cc(=O)[nH]c3cc2NC1(C)C (stereo unspecified) | – | 46 | 251 | 2330
30 | CN1c2cc3c(cc2CCC1(C)C)c(C(F)(F)F)cc(=O)n3C | 85 | 19 | 17 | 2200
31 | CCC1(C)CCc2cc3c(C(F)(F)F)cc(=O)[nH]c3cc2N1 (stereo unspecified) | – | – | – | 543
32 | CCC1Cc2cc3c(C(F)(F)F)cc(O)nc3cc2NC1(C)C (stereo unspecified) | 82 | – | – | –
33 | C[C@@H]1c2cc3c(C(F)(F)F)cc(O)nc3cc2NC(C)(C)[C@H]1C | 92 | – | – | 735
34 | CC1CC(C)(C)Nc2cc3c(cc21)c(C(F)(F)F)cc(=O)n3C (stereo unspecified) | 98 | 73 | 46 | 585
35 | CC1(C)Cc2cc3c(C(F)(F)F)cc(O)nc3cc2NC1(C)C | 98 | – | – | –
36 | CCC1(C)CCc2cc3c(C(F)(F)F)cc(=O)n(C)c3cc2N1C (stereo unspecified) | 92 | 24 | 10 | 1100
37 | CC1CC(C)(C)Nc2cc3nc(O)cc(C(F)(F)F)c3cc21 (stereo unspecified) | 86 | – | – | 231
38 | Cc1c2c(cc3c(C(F)(F)F)cc(=O)[nH]c13)C(C)CC(C)(C)N2 (stereo unspecified) | – | 22 | 85 | 3730
39 | CC1=CC(C)(C)Nc2cc3[nH]c(=O)cc(C(F)(F)F)c3cc21 | – | – | – | 49
40 | CC1Cc2cc3c(C(F)(F)F)cc(O)nc3cc2NC1(C)C (stereo unspecified) | 89 | – | – | –
41 | Cc1c2c(cc3c(C(F)(F)F)cc(=O)n(C)c13)C(C)CC(C)(C)N2 (stereo unspecified) | 79 | 31 | 40 | 2930
42 | CCCC1(C)CCc2cc3c(C(F)(F)F)cc(=O)[nH]c3cc2N1 (stereo unspecified) | – | 42 | 69 | 1140
43 | Cn1c(=O)cc(C(F)(F)F)c2cc3c(cc21)NC(C)(C)CC3 | 74 | 36 | 56 | 1240
44 | CC1(C)CCc2cc3c(C(F)(F)F)cc(O)nc3cc2N1 | 80 | – | – | –
45 | CCC1CC(C)(C)Nc2cc3nc(O)cc(C(F)(F)F)c3cc21 (stereo unspecified) | 74 | 27 | 54 | 274
46 | CC1=CC(C)(C)Nc2cc3nc(O)cc(C)c3cc21 | 83 | – | – | –
